Experiments:
MT-SSAT transgenic rats = experiment: Zinc-induced pancreatitis, prevention by pretreatment with analogue (plasma α-amylase, pancreatic histology); format: in vivo, rat
Method: FIG. 2. Plasma α-amylase activity in syngenic and transgenic rats after zinc and methylspermidine. The animals were treated as in FIG. 1. Six to eight animals in each group. *p<0.05 as compared with zinc-treated animals. ***p<0.001 as compared with untreated animals. Me-spd, methylspermidine.
FIGS. 3a–3d. Histology of pancreas of transgenic rats after zinc and methylspermidine. The animals were treated as in FIGS. 1a–1d. Magnification ×125. […] The animals received zinc (10 mg/kg) 24 h before sacrifice without (FIG. 3b) or with methylspermidine (50 mg/kg) either as single dose 4 h before zinc (FIG. 3c) or as two doses 20 h and 4 h before zinc (FIG. 3d).
Formalin-fixed pancreatic specimens were embedded in paraffin, cut into 5-μm-thick slices, and stained with hematoxylin/eosin. The stained sections were coded and scored by the participating gastroenterologist (K.-H. H.) according to the method of Niederau et al. (Niederau, C., Liddle, R. A., Ferrell, L. D., and Grendell, J. H. (1986) J. Clin. Invest. 78, 1056–1063).
FIG. 3 depicts pancreatic histology in transgenic animals after saline (FIG. 3a), after zinc alone (FIG. 3b), after zinc and single dose of the analogue (FIG. 3c) and after zinc and two doses of the analogue (FIG. 3d). The acinar structure of untreated transgenic animal is entirely normal (FIG. 3a) whereas zinc induced distinct pancreatitis with more than 50% of the acinar cells undergoing necrosis (FIG. 3b). […] Table A summarizes the histological scoring of pancreatic specimens from all animals. […] A single dose of the analogue administered prior to zinc reduced the extent of necrosis while after two repeated doses of the compound very little, if any, necrosis was present (Table A).
MT-SSAT (UKUR30) transgenic rats received zinc (10 mg/kg i.p.) 24 h before sacrifice either alone or in the combination with Me2SPM (25 mg/kg i.p.) administered twice 20 h and 4 h before zinc. There were three animals in each group. Plasma amylase activity was measured as a marker of pancreatitis.

SSAT transgenic rats = experiment: Stability of the analogues in the liver of SSAT transgenic rats without or with MDL72527 (hepatic polyamine pools); format: in vivo, rat; conditions: for metabolic stability / conversion in the liver in vivo: 25 mg/kg i.p. twice, without MDL72527; for conversion to α-methylspermidine in the liver: with MDL72527 50 mg/kg i.p. twice
Method: FIGS. 8A-8D. Hepatic polyamine pools in SSAT transgenic rats treated with methylated polyamine analogues without or with MDL72527. The rats were injected twice with MDL72527 (50 mg/kg i.p.) at 16-h interval. The polyamine analogues (25 mg/kg i.p.) were injected 2 and 8 h later. The animals were sacrificed 24 h after the last MDL72527 injection. There were three to four animals in each group. Put, putrescine; […] Spd, spermidine; Me-Spd, α-methylspermidine; […] The production of transgenic Wistar rats (UKUR30) and mice (UKU181) harboring metallothionein-SSAT fusion gene (Suppola, […]., Porter, C. W., and Jänne, J. (1999) Biochem. […] (2000) Proc. Natl. Acad. Sci. U.S.A. 97, 8290-8295; Lukkarinen, […]., and Alhonen, L. (1997) Stroke 28, 639-645). Partial hepatectomy was carried out according to the original method of Higgins and Anderson (Higgins, G. H., and Anderson, R. M. (1931) Arch. Pathol. 12, 186-202). Treatments before partial hepatectomy and the determination of DNA synthesis were carried out as in ([…]., Suppola, […]., and […]. Biol. Chem. 277, 39867-39872). Transgenic 10 weeks old male rats were injected twice with MDL72527 (50 mg/kg i.p.) at 16-h interval to inactivate PAO according to (Bolkenius, F. N., Bey, P., and Seiler, N. (1985) Biochim. Biophys. […] An aliquot of the homogenates was used for the polyamine assays. The homogenates were centrifuged (at 13 000×g, for 30 min, at 4° C.) and the supernatants were used for the enzyme activity assays. The Institutional Animal Care and Use Committee of the University of Kuopio and by the Provincial Government approved animal experiments. […] Merck (Darmstadt, Germany).

[1] = system: syngenic and UKU181 transgenic mice; experiment: Plasma α-amylase and ALAT in syngenic and transgenic mice after analogue injection; format: in vivo, mouse; conditions: 24 h before sacrifice
Method: (§1) α-methylspermidine, Bis-α-methylspermine and α-methylspermine were administered in saline. […] The data are expressed as means ±S.D. For statistical analysis, the two-tailed Student's t test was used.

SSAT = experiment: Hepatic, pancreatic and renal SSAT activity in syngenic and metallothionein-SSAT mice after analogue; format: in vivo, mouse; conditions: 24 h before sacrifice
Method: as §1

rats = experiment: Toxicity of spermine derivatives in rats (deaths); format: in vivo, rat; conditions: 50 mg/kg twice/24 h
Excerpt: It is likely to be the case with the methylated analogues as well.

[2] = MT-SSAT transgenic rats, zinc 10 mg/kg i.p. 24 h, Me2SPM 25 mg/kg i.p. 20 h and 4 h before zinc
[3] = Tg (transgenic) mice, 12.5 mg/kg
[4] = Tg (transgenic) mice, 37.5 mg/kg

## CC(N)CCNCCCCNCCC(C)N (stereo not drawn) [bis-α-methylspermine, 1,12-dimethylspermine]
MT-SSAT transgenic rats; [2]
  Pancreatic histology: modest edema
  plasma amylase: 2744 ± 837
MT-SSAT transgenic rats; rats with depleted polyamine pools, 25 mg/kg 2 injections i.p. 20/4 hours prior to zinc
  prevention of pancreatitis: prevents pancreatitis
SSAT transgenic rats
  metabolic stability / conversion in the liver in vivo: converted to α-methylspermidine, but less effectively than α-methylspermine
  conversion to α-methylspermidine in the liver: totally prevented
[1]; Sg (syngenic) mice, 12.5 mg/kg
  Plasma ALAT: 49.33 U/dm^3
  Plasma α-amylase: 3167.33 U/dm^3
[1]; Sg (syngenic) mice, 25 mg/kg
  Plasma ALAT: 57.67 U/dm^3
  Plasma α-amylase: 2931.00 U/dm^3
[1]; Sg (syngenic) mice, 37.5 mg/kg
  Plasma ALAT: 35.67 U/dm^3
  Plasma α-amylase: 2827.00 U/dm^3
[1]; Sg (syngenic) mice, 50 mg/kg
  Plasma ALAT: 62.00 U/dm^3
  Plasma α-amylase: 2715.33 U/dm^3
[1]; [3]
  Plasma ALAT: 50.67 U/dm^3
  Plasma α-amylase: 2822.67 U/dm^3
[1]; Tg (transgenic) mice, 25 mg/kg
  Plasma ALAT: 45.33 U/dm^3
  Plasma α-amylase: 3242.33 U/dm^3
[1]; [4]
  Plasma ALAT: 31.00 U/dm^3
  Plasma α-amylase: 2540.00 U/dm^3
[1]; Tg (transgenic) mice, 50 mg/kg
  Plasma ALAT: 60.00 U/dm^3
  Plasma α-amylase: 2886.00 U/dm^3
SSAT; Sg (syngenic) mice, 12.5 mg/kg
  SSAT activity, Kidney: 0.32 ± 0.14 ^++ pmoles/10 min/ tissue wet weight
  SSAT activity, Pancreas: 3.38 pmoles/10 min/ tissue wet weight
SSAT; Sg (syngenic) mice, 25 mg/kg
  SSAT activity, Kidney: 0.58 ± 0.43 ^+ pmoles/10 min/ tissue wet weight
  SSAT activity, Pancreas: 4.23 pmoles/10 min/ tissue wet weight
SSAT; Sg (syngenic) mice, 37.5 mg/kg
  SSAT activity, Kidney: 0.33 ± 0.14 ^+ pmoles/10 min/ tissue wet weight
  SSAT activity, Pancreas: 3.18 pmoles/10 min/ tissue wet weight
SSAT; Sg (syngenic) mice, 50 mg/kg
  SSAT activity, Kidney: 0.60 ± 0.19 ^+ pmoles/10 min/ tissue wet weight
  SSAT activity, Pancreas: 8.44 pmoles/10 min/ tissue wet weight
SSAT; [3]
  SSAT activity, Kidney: 0.72 ± 0.24 pmoles/10 min/ tissue wet weight
  SSAT activity, Liver: 6.56 pmoles/10 min/ tissue wet weight
  SSAT activity, Pancreas: 34.11 pmoles/10 min/ tissue wet weight
SSAT; Tg (transgenic) mice, 25 mg/kg
  SSAT activity, Kidney: 1.48 ± 0.92 pmoles/10 min/ tissue wet weight
  SSAT activity, Liver: 9.08 pmoles/10 min/ tissue wet weight
  SSAT activity, Pancreas: 65.20 pmoles/10 min/ tissue wet weight
SSAT; [4]
  SSAT activity, Kidney: 8.04 ± 14.36 pmoles/10 min/ tissue wet weight
  SSAT activity, Liver: 55.79 pmoles/10 min/ tissue wet weight
  SSAT activity, Pancreas: 124.95 pmoles/10 min/ tissue wet weight
SSAT; Tg (transgenic) mice, 50 mg/kg
  SSAT activity, Kidney: 1.24 ± 0.39 pmoles/10 min/ tissue wet weight
  SSAT activity, Liver: 13.11 pmoles/10 min/ tissue wet weight
  SSAT activity, Pancreas: 62.05 pmoles/10 min/ tissue wet weight
rats
  deaths: a number of rats died

## CC(N)CCNCCCCNCCCN (stereo not drawn) [α-methylspermine, 1-methylspermine]
SSAT transgenic rats
  metabolic stability / conversion in the liver in vivo: effectively converted to α-methylspermidine
  conversion to α-methylspermidine in the liver: markedly inhibited
[1]; Sg (syngenic) mice, 12.5 mg/kg
  Plasma ALAT: 54.33 ± 4.16 U/dm^3
  Plasma α-amylase: 2352.00 ± 206.37 U/dm^3
[1]; Sg (syngenic) mice, 25 mg/kg
  Plasma ALAT: 43.67 ± 4.04 U/dm^3
  Plasma α-amylase: 2645.67 ± 161.87 ^+ U/dm^3
[1]; Sg (syngenic) mice, 37.5 mg/kg
  Plasma ALAT: 47.67 ± 13.43 U/dm^3
  Plasma α-amylase: 2610.67 ± 144.67 U/dm^3
[1]; Sg (syngenic) mice, 50 mg/kg
  Plasma ALAT: 49.00 ± 2.83 U/dm^3
  Plasma α-amylase: 2512.33 ± 275.71 U/dm^3
[1]; [3]
  Plasma ALAT: 58.67 ± 7.77 U/dm^3
  Plasma α-amylase: 2675.67 ± 305.64 U/dm^3
[1]; Tg (transgenic) mice, 25 mg/kg
  Plasma ALAT: 44.67 ± 5.69 U/dm^3
  Plasma α-amylase: 2044.67 ± 112.93 U/dm^3
[1]; [4]
  Plasma ALAT: 37.00 ± 2.83 U/dm^3
  Plasma α-amylase: 2450.00 ± 410.12 U/dm^3
[1]; Tg (transgenic) mice, 50 mg/kg
  Plasma ALAT: 41.33 ± 3.79 U/dm^3
  Plasma α-amylase: 2667.00 ± 297.24 U/dm^3
SSAT; Sg (syngenic) mice, 12.5 mg/kg
  SSAT activity, Kidney: 3.65 ± 2.39 ^+ pmoles/10 min/ tissue wet weight
  SSAT activity, Liver: 0.47 pmoles/10 min/ tissue wet weight
  SSAT activity, Pancreas: 2.03 pmoles/10 min/ tissue wet weight
SSAT; Sg (syngenic) mice, 25 mg/kg
  SSAT activity, Kidney: 2.76 ± 2.52 pmoles/10 min/ tissue wet weight
  SSAT activity, Liver: 0.26 pmoles/10 min/ tissue wet weight
  SSAT activity, Pancreas: 1.72 pmoles/10 min/ tissue wet weight
SSAT; Sg (syngenic) mice, 37.5 mg/kg
  SSAT activity, Kidney: 4.29 ± 2.38 pmoles/10 min/ tissue wet weight
  SSAT activity, Liver: 0.75 pmoles/10 min/ tissue wet weight
  SSAT activity, Pancreas: 1.46 pmoles/10 min/ tissue wet weight
SSAT; Sg (syngenic) mice, 50 mg/kg
  SSAT activity, Kidney: 3.20 ± 2.40 pmoles/10 min/ tissue wet weight
  SSAT activity, Liver: 0.52 pmoles/10 min/ tissue wet weight
  SSAT activity, Pancreas: 2.23 pmoles/10 min/ tissue wet weight
SSAT; [3]
  SSAT activity, Kidney: 5.86 ± 1.91 pmoles/10 min/ tissue wet weight
  SSAT activity, Liver: 21.19 pmoles/10 min/ tissue wet weight
  SSAT activity, Pancreas: 609.10 pmoles/10 min/ tissue wet weight
SSAT; Tg (transgenic) mice, 25 mg/kg
  SSAT activity, Kidney: 3.06 ± 2.23 pmoles/10 min/ tissue wet weight
  SSAT activity, Liver: 30.81 pmoles/10 min/ tissue wet weight
  SSAT activity, Pancreas: 561.36 pmoles/10 min/ tissue wet weight
SSAT; [4]
  SSAT activity, Kidney: 3.47 ± 2.52 pmoles/10 min/ tissue wet weight
  SSAT activity, Liver: 24.88 pmoles/10 min/ tissue wet weight
  SSAT activity, Pancreas: 543.84 pmoles/10 min/ tissue wet weight
SSAT; Tg (transgenic) mice, 50 mg/kg
  SSAT activity, Kidney: 2.95 ± 1.82 pmoles/10 min/ tissue wet weight
  SSAT activity, Liver: 39.44 pmoles/10 min/ tissue wet weight
  SSAT activity, Pancreas: 707.60 pmoles/10 min/ tissue wet weight
rats
  deaths: a number of rats died

— US7202280B2, “Methods for the treatment and prevention of pancreatitis and for induction of liver regeneration” (priority 2002, dated 2007)
